From patent EP3272768A1, “CHIMERIC PEPTIDES USEFUL IN MALARIA PROPHYLAXIS OR TREATMENT” (priority 2016, dated 2018) come the findings set out here.

The subject of the data set is primary human hepatocytes. The class given is cell-based. How it is done:
A) Overlapping dodecapeptides with two amino acid shift covering the whole […] PfLRR1 protein were bound to a solid support. The membrane was incubated sequentially with PP1 protein, and anti- PP1 antibody, followed by a peroxidase-labeled secondary antibody. […] PfLRR1.1 and PfLRR1.2 are shown. B) PP1 sequence alignment between human and P. falciparum species (SEQ ID NO:16 and 15). • Figures 2A and 2B show in vitro cell viability assay. Primary hepatocytes were treated with or without various concentrations of […] or […] peptides. Absorbance was recorded 72h after. […] The assay was done using parasitemia of 0.5% and hematocrit of 1%. The peptides were added at various concentrations and incubated for 48h and then, fixed. Samples were analyzed by flow cytometry. Results are expressed as percentage of growth inhibition. • Figures 4A and 4B show in vitro effect of chimeric peptides PfLRR1.1 (peptide 1) and PfLRR1.2 (peptide 2) on the hepatic stage of the P. falciparum. […] The culture was fixed with paraformaldehyde (PFA) and analysed by fluorescence microscopy. • Figures 5A and 5B show in vitro effect of peptides PfLRR1.1 and PfLRR1.2 on the hepatic stage of the P. vivax. […] The culture was fixed with PFA and analysed by fluorescence microscopy.
The cell viability was determined using a colorimetric assay based on 3-(4,5-dimethylthiazol- 2-yl)-2,5 diphenyltetrazolium bromide (MTT). […]

Peptide text beside a SMILES is read from it.

On to `CC[C@H](C)[C@H](NC(=O)[C@H](CCCCN)NC(=O)[C@H](CCCCN)NC(=O)[C@H](CCCCN)NC(=O)[C@H](CCCCN)NC(=O)[C@@H](N)C(C)C)C(=O)N[C@@H](CCCCN)C(=O)N[C@@H](C)C(=O)N[C@@H](CCC(=O)O)C(=O)N[C@H](C(=O)N[C@@H](CCCCN)C(=O)N[C@H](C(=O)N[C@@H](CCC(=O)O)C(=O)N[C@@H](CC(N)=O)C(=O)N[C@@H](Cc1ccc(O)cc1)C(=O)N[C@@H](CCCNC(=N)N)C(=O)N[C@@H](CCCCN)C(=O)N[C@H](C(=O)N[C@H](C(=O)N[C@H](C(=O)N[C@@H](Cc1c[nH]cn1)C(=O)N[C@H](C(=O)N[C@@H](CC(C)C)C(=O)N1CCC[C@H]1C(=O)N[C@@H](CCC(N)=O)C(=O)N[C@@H](CC(C)C)C(=O)N[C@@H](CCCCN)C(=O)N[C@@H](CCC(N)=O)C(=O)N[C@@H](CC(C)C)C(=O)N[C@@H](CC(=O)O)C(=O)N[C@@H](C)C(=O)N[C@@H](CC(C)C)C(=O)O)[C@@H](C)CC)[C@@H](C)CC)[C@@H](C)CC)[C@@H](C)O)[C@@H](C)CC)[C@@H](C)CC` [PfLRR1.1] (H-VKKKKIKAEIKIENYRKTIIHILPQLKQLDAL-OH), for which the “toxicity for the host cell (primary human hepatocyte)” value is “not toxic”.
With `CC[C@H](C)[C@H](NC(=O)[C@H](CCCCN)NC(=O)[C@H](CCCCN)NC(=O)[C@H](CCCCN)NC(=O)[C@H](CCCCN)NC(=O)[C@@H](N)C(C)C)C(=O)N[C@@H](CCCCN)C(=O)N[C@@H](C)C(=O)N[C@@H](CCC(=O)O)C(=O)N[C@H](C(=O)N[C@@H](CCCCN)C(=O)N[C@H](C(=O)N[C@H](C(=O)N[C@@H](CCC(=O)O)C(=O)N[C@@H](CC(N)=O)C(=O)N[C@@H](CC(C)C)C(=O)N[C@@H](CCC(N)=O)C(=O)N[C@@H](CC(N)=O)C(=O)N[C@@H](CS)C(=O)N[C@@H](CCCCN)C(=O)N[C@@H](CCCCN)C(=O)N[C@@H](CC(C)C)C(=O)N[C@@H](CCCNC(=N)N)C(=O)N[C@@H](CC(C)C)C(=O)N[C@@H](CC(C)C)C(=O)N[C@@H](CCC(=O)O)C(=O)N[C@@H](CC(C)C)C(=O)NCC(=O)N[C@@H](Cc1ccc(O)cc1)C(=O)N[C@@H](CC(N)=O)C(=O)N[C@@H](CCCCN)C(=O)N[C@H](C(=O)N[C@@H](CCCNC(=N)N)C(=O)N[C@@H](CCSC)C(=O)O)[C@@H](C)CC)[C@@H](C)CC)[C@@H](C)CC)[C@@H](C)CC` [PfLRR1.2] (H-VKKKKIKAEIKIIENLQNCKKLRLLELGYNKIRM-OH) the entry was “not toxic”.
